SMILES strings stand for the structures.

The subject of one data set is tau protein. The following applies: cited from earlier work.
The subject of data set [1] is hyperphosphorylated tau-expressing mice. The following applies: administered to hyperphosphorylated tau-expressing mice; cited from earlier work.
The nature of data set [2]: Stability of isolated [11C]isoproterenol solution, radiochemical purity by HPLC. The class given is physicochemical. Here is the method: Radiochemical purity and chemical purity of [2-^11C] isoproterenol in the solution after HPLC fractionation were analyzed by HPLC (CH3CN/acetic acid-ammonium acetate (pH 5.3), 10:90; column, CAPCELL PAK SCX UG 80, 4.6 (id)×150 mm; flow rate, 1 mL/min; UV detection, 278 nm; retention time, 6.5 min). [^11C] isoproterenol was confirmed by co-injection of unlabeled isoproterenol in HPLC. In the absence of addition of tartaric acid, the radiochemical purity immediately after isolation was 96%, whereas the radiochemical purity after 60 minutes dropped to 84% (see FIG. 3). […] This is presumed to be due to inhibition of deprotonation of two adjacent phenolic hydroxyl groups present in the catechol nucleus under acidic conditions and suppression of subsequent oxidative decomposition by oxygen molecules or superoxide. Also, the chemical purity measured at the above wavelength was >93%

For `CC(C)NCC(O)c1ccc(O)c(O)c1` [D/L-isoproterenol], the “inhibition of aggregation of tau protein” value with tau protein was “particularly strongly suppresses aggregation of tau protein”. For the same compound, in data set [1], the abnormal behavior result was “improvement of abnormal behavior”, the “aggregation of tau protein” value was “suppression of aggregation of tau protein” and the nerve cell dropout result is “suppression of nerve cell dropout”.

On to `CC(C)NCC(O)c1ccc(O)c(O)c1` (stereo not drawn) [[^11C] isoproterenol, [2-^11C] isoproterenol], for which the “radiochemical purity after 60 minutes” value in data set [2] (solution after HPLC fractionation, absence of addition of tartaric acid, 60 minutes after isolation) is 84%. Moreover, the “radiochemical purity immediately after isolation” value in data set [2] (solution after HPLC fractionation, absence of addition of tartaric acid, immediately after isolation) is reported as 96%. Besides, in data set [2] (tartaric acid added, 60 minutes after isolation), the “drop in radiochemical purity after 60 minutes” value was “no drop in radiochemical purity was observed”.

As to `CNCC(O)c1ccc(O)c(O)c1` (stereo not drawn) [adrenaline], the “inhibition of aggregation of tau protein” value in the data set on tau protein was “inhibited aggregation of tau protein”.

Take `NCCc1ccc(O)c(O)c1` [dopamine]: in the data set on tau protein, the “inhibition of aggregation of tau protein” value is on record as “inhibited aggregation of tau protein”.
